Where “and” joins values, the source holds several entries; their conditions need not be identical. Identical values can stand only once. Each block holds one compound with its values, some of them ahead of it.
How the values were obtained:
DNA of A375 cells = experiment: DNA damage evaluation: number of AP sites; format: cell-based, human; conditions: A375, 24 h, concentration corresponding to IC50; control 0.67 ± 0.08
Experimental: DNA damage was evaluated on the basis of a basic (AP) sites presence, that arose in response to oxidative damage or as an intermediate in base excision repair pathway. The A375 cells were seeded in 6-well culture plates at a density 1 × 10^5 cells/mL and after 70–80% confluency achievement the cells were treated with CuT1, Cu10, CuT16 in concentrations corresponding to IC50 values or DMSO as vehicle in control cultures. After 24 h of incubation genomic DNA was isolated using Syngen DNA Mini Kit (Syngen Biotech, Wroclaw, Poland) according to the manufacturer’s instruction. The concentrations of isolated DNA for all samples were equalized to 100 µg/mL. The measurements of the number of AP sites were evaluated with DNA Damage Quantification Kit (Dojindo, Japan) according to the manufacturer’s instruction. The DNA was treated with Aldehyde Reactive Probe (ARP) to tag all of the AP sites with a biotin residue. Then all of the AP sites were quantified using avidin—biotin assay. The coloured product of horseradish peroxidase conjugated to the avidin was detected at 650 nm using a PowerWave™ xs microplate spectrophotometer (BioTek Instruments, Winooski, VT, USA).

[1] = test system: A375 human melanoma cells; experiment: MTT cell viability assay, A375 melanoma; format: cell-based; conditions: for IC50: A375, MTT test, 24 h treatment; for toxicity to A375 / malignant cells versus normal cells (in words): from IC50 values, MTT, 24 h
Experimental: (§1) The evaluation of cytotoxicity of tested compounds was carried out on the G361, A375, and SK-MEL-28 human melanoma cells and BJ human normal fibroblast cells. The cell lines were obtained from American Type Culture Collection (ATCC, Manassas, VA, USA). The cells were cultured at 37 °C in the presence of 5% CO2 in atmosphere. The culture medium (Dulbecco’s Modified Eagle’s Medium for G361 and A375 and Eagle’s Minimum Essential Medium for SK-MEL-28 and BJ) was supplemented with 10% foetal bovine serum. The cells morphology was examined under inverted phase contrast microscope Nikon Eclipse Ti (Nikon, Tokyo, Japan). The authenticity of tested cell lines was verified by short tandem repeat (STR) genotyping in the Department of Forensic Medicine (Medical University of Lublin, Lublin, Poland).
(§2) The cells were seeded into 96-well plates (in concentration: BJ, A375, and SK-MEL-28—1 × 10^5 cells/mL, G361—1.5 × 10^5 cells/mL) and cultured until they reach 70–80% confluency. Then the cells were incubated with tested compounds and dacarbazine in concentrations ranging from 10 to 500 µM or DMSO as vehicle in control cultures for next 24 h (max. DMSO concentration <0.5%). The compounds cytotoxicity was evaluated with the MTT colorimetric method based on the ability of viable cells to the transformation of tetrazolium salts (3-[4,5-dimethylthiazol-2-yl]-2,5-) diphenyltetrazolium bromide, MTT) to purple formazan, by cellular dehydrogenases. After 24-h-incubation cell cultures were supplemented with 20 µL of 5 mg/mL MTT (Thermofisher, Waltham, MA, USA) stock in PBS (Corning, NY, USA), and the incubation was continued for 4 h at 37 °C. Next, the medium with MTT was removed, and the formed crystals were dissolved in 200 µL of DMSO (dimethyl sulfoxide, Avantor, Gliwice, Poland). The solution absorbency was measured at 570 nm, using a PowerWave™ xs microplate spectrophotometer (BioTek Instruments, Winooski, VT, USA). The experiment was performed three times with three replicates for each concentration of tested compounds. IC50 values were determined using the AAT Bioquest IC50 calculator [51]. On the basis of obtained IC50 values for normal and malignant cells, A375 cell line and three tested compounds (CuT1, Cu10, CuT16) were chosen for further investigation.

GPX2 = experiment: qRT-PCR gene expression in A375 cells: GPX2; format: cell-based, human; conditions: A375, 24 h, concentration corresponding to IC50; RQ = 2^-ΔΔCt vs control
Experimental: (§3) The expression level of genes connected with DNA repair and oxidative stress response was evaluated with quantitative real-time PCR (qRT-PCR) method. The A375 cells were seeded in 6-well culture plates at a density 1 × 10^5 cells/mL and after 70–80% confluency achievement the cells were treated with CuT1, Cu10, CuT16 in concentrations corresponding to IC50 values or DMSO as vehicle in control cultures. After 24h of incubation total RNA was isolated using the Syngen Blood/Cell RNA Mini Kit (Syngen Biotech, Wroclaw, Poland). All samples were transcribed using NG dART RT-PCR reagents (EURx, Gdansk, Poland) according to the manufacturer’s instructions. The relative mRNA expression level was determined by relative quantification method (ΔΔCt) using 18S ribosomal N5 (RNA18SN5) and beta-actin (ACTB) as endogenous controls. The reference genes were selected on the basis of our preliminary studies, where RNA18SN5 and ACTB remained unaffected by the experimental conditions. The PCR was conducted in triplicate using Applied Biosystems® 7500 Fast Real-Time PCR system (Applied Biosystems, Foster City, CA, USA) and SG qPCR Master Mix (2×) (EURx, Gdansk, Poland) in accordance with the manufacturer’s protocol. Data was presented and analysed as RQ values (RQ = 2^−ΔΔCt).

MLH1 = experiment: qRT-PCR gene expression in A375 cells: MLH1; format: cell-based, human; conditions: A375, 24 h, concentration corresponding to IC50; RQ = 2^-ΔΔCt vs control
Experimental: as §3

CAT = experiment: qRT-PCR gene expression in A375 cells: CAT; format: cell-based, human; conditions: A375, 24 h, concentration corresponding to IC50; RQ = 2^-ΔΔCt vs control
Experimental: as §3

ATM = experiment: qRT-PCR gene expression in A375 cells: ATM; format: cell-based, human; conditions: A375, 24 h, concentration corresponding to IC50; RQ = 2^-ΔΔCt vs control
Experimental: as §3

A375 cells = experiment: Microscopic observation of cell morphology; format: cell-based, human; conditions: A375, 24 h, concentration corresponding to IC50
Experimental: The MTT test results for selected compounds were verified by microscopic observations of cell morphology. […] A large part of the cells floated in the culture medium (Figure 5).
as §1

SOD2 = experiment: qRT-PCR gene expression in A375 cells: SOD2; format: cell-based, human; conditions: A375, 24 h, concentration corresponding to IC50; RQ = 2^-ΔΔCt vs control
Experimental: as §3

ERCC = experiment: qRT-PCR gene expression in A375 cells: ERCC; format: cell-based, human; conditions: A375, 24 h, concentration corresponding to IC50; RQ = 2^-ΔΔCt vs control
Experimental: as §3

MGMT = experiment: qRT-PCR gene expression in A375 cells: MGMT; format: cell-based, human; conditions: A375, 24 h, concentration corresponding to IC50; RQ = 2^-ΔΔCt vs control
Experimental: as §3

MSH2 = experiment: qRT-PCR gene expression in A375 cells: MSH2; format: cell-based, human; conditions: A375, 24 h, concentration corresponding to IC50; RQ = 2^-ΔΔCt vs control
Experimental: as §3

PARP1 = experiment: qRT-PCR gene expression in A375 cells: PARP1; format: cell-based, human; conditions: A375, 24 h, concentration corresponding to IC50; RQ = 2^-ΔΔCt vs control
Experimental: as §3

XPC = experiment: qRT-PCR gene expression in A375 cells: XPC; format: cell-based, human; conditions: A375, 24 h, concentration corresponding to IC50; RQ = 2^-ΔΔCt vs control
Experimental: as §3

OGG1 = experiment: qRT-PCR gene expression in A375 cells: OGG1; format: cell-based, human; conditions: A375, 24 h, concentration corresponding to IC50; RQ = 2^-ΔΔCt vs control
Experimental: as §3

[2] = test system: SK-MEL-28 human melanoma cells; experiment: MTT cell viability assay, SK-MEL-28 melanoma; format: cell-based; conditions: SK-MEL-28, MTT test, 24 h treatment
Experimental: as §1, §2

[3] = test system: G361 human melanoma cells; experiment: MTT cell viability assay, G361 melanoma; format: cell-based; conditions: G361, MTT test, 24 h treatment
Experimental: as §1, §2

[4] = test system: BJ human normal fibroblast cells; experiment: MTT cell viability assay, BJ normal fibroblasts; format: cell-based; conditions: MTT test, 24 h treatment
Experimental: as §1, §2

IC50 [1]: 69.9 ± 1.87 µM | IC50 [2]: 130 ± 3.98 µM | IC50 [3]: 136 ± 7.01 µM
Structure (SMILES): COc1ccc(C=NNC(=S)Nc2ccccc2)cc1OC.[Cl-].[Cl-].[Cu+2] [CuT1]
AP sites number (DNA of A375 cells): 20.24 ± 0.19 AP/100 kbp | toxicity to A375 / malignant cells versus normal cells (in words) [1]: less toxic for normal cells | Mean RQ GPX2 mRNA (GPX2): 0.000 | Mean RQ MLH1 mRNA (MLH1): 1.001 | Mean RQ CAT mRNA (CAT): 0.773 | Mean RQ ATM mRNA (ATM): 1.452 | cell morphology (in words) (A375 cells): became round and had poor adherence | Mean RQ SOD2 mRNA (SOD2): 1.510 | Mean RQ ERCC mRNA (ERCC): 0.401 | Mean RQ MGMT mRNA (MGMT): 0.715 | Mean RQ MSH2 mRNA (MSH2): 0.973 | Mean RQ PARP1 mRNA (PARP1): 0.908 | Mean RQ XPC mRNA (XPC): 1.038 | Mean RQ OGG1 mRNA (OGG1): 0.902 | IC50 [4]: 257 ± 4.45 µM

IC50 [1]: 26.1 ± 1.75 µM | IC50 [2]: 133 ± 8.34 µM | IC50 [3]: 251 ± 11.1 µM
Structure (SMILES): COc1ccc(C=NNC(=S)Nc2ccccc2Cl)cc1OC.COc1ccc(C=NNC(=S)Nc2ccccc2Cl)cc1OC.[Cl-].[Cl-].[Cu+2] [CuT10]
AP sites number (DNA of A375 cells): 2.043 ± 0.02 AP/100 kbp | toxicity to A375 / malignant cells versus normal cells (in words) [1]: less toxic for normal cells | Mean RQ GPX2 mRNA (GPX2): 0.022 | Mean RQ MLH1 mRNA (MLH1): 0.337 | Mean RQ CAT mRNA (CAT): 0.801 | Mean RQ ATM mRNA (ATM): 2.038 | cell morphology (in words) (A375 cells): became round and had poor adherence | Mean RQ SOD2 mRNA (SOD2): 1.430 | Mean RQ ERCC mRNA (ERCC): 1.215 | Mean RQ MGMT mRNA (MGMT): 0.448 | Mean RQ MSH2 mRNA (MSH2): 1.337 | Mean RQ PARP1 mRNA (PARP1): 0.342 | Mean RQ XPC mRNA (XPC): 1.456 | Mean RQ OGG1 mRNA (OGG1): 0.264 ± 0.071 and 0.264 | IC50 [4]: 203 ± 8.67 µM

IC50 [1]: 40.5 ± 0.98 µM | IC50 [2]: 46.1 ± 2.74 µM | IC50 [3]: 157 ± 2.75 µM
Structure (SMILES): S=C(NN=Cc1ccc(Cl)c(Cl)c1)Nc1ccccc1Cl.S=C(NN=Cc1ccc(Cl)c(Cl)c1)Nc1ccccc1Cl.[Cl-].[Cl-].[Cu+2] [CuT12]
IC50 [4]: 42.9 ± 1.17 µM

IC50 [1]: 110 ± 2.95 µM | IC50 [2]: 119 ± 9.75 µM | IC50 [3]: 148 ± 9.77 µM
Structure (SMILES): S=C(NN=Cc1ccc(Br)cc1)Nc1cccc(Cl)c1.[Cl-].[Cl-].[Cu+2] [CuT13]
IC50 [4]: 130 ± 3.45 µM

IC50 ([1]; Homo sapiens, A-375): 413 ± 7.08 µM | IC50 ([2]; Homo sapiens): 370 ± 9.46 µM | IC50 ([3]; Homo sapiens, G-361): 426 ± 4.74 µM
Structure (SMILES): CN(C)/N=N/c1[nH]cnc1C(N)=O [DTIC, dacarbazine, reference compound]
IC50 ([4]; Homo sapiens, Fibroblast): > 500 µM

IC50 ([1]; Homo sapiens, A-375): 321 ± 2.85 µM | IC50 ([2]; Homo sapiens): > 500 µM | IC50 ([3]; Homo sapiens, G-361): 488.1 ± 1.66 µM
Structure (SMILES): COc1ccc(C=NNC(=S)Nc2ccccc2)cc1OC [T1]
IC50 ([4]; Homo sapiens, Fibroblast): 358 ± 7.85 µM

melting point: 170 to 172 °C
Structure (SMILES): CNC(=S)NN=C(C)c1ccc(N)cc1 [T4, 2-[1-(4-Aminophenyl)ethylidene]-N-methyl-hydrazine-1-carbothioamide]

melting point: 178 to 180 °C
Structure (SMILES): Cc1ccccc1NC(=S)NN=Cc1ccc(Br)cc1 [T6, 2-[(4-Bromophenyl)methylidene]-N-(2-methylphenyl)hydrazine-1-carbothioamide]

melting point: 205 to 206 °C
Structure (SMILES): COc1ccc(C=NNC(=S)Nc2ccccc2C)cc1OC [T7, 2-[(3,4-Dimethoxyphenyl)methylidene]-N-(2-methylphenyl)hydrazine-1-carbothioamide]

— PMC8002893, “Influence of Complexation of Thiosemicarbazone Derivatives with Cu (II) Ions on Their Antitumor Activity against Melanoma Cells” (International Journal of Molecular Sciences, 2021)
